Results taken from patent US7932283B2, “Fungicide N-cyclopropyl-sulfonylamide derivatives” (Bayer Cropscience AG, priority 2006, dated 2011).

Assays:
Podosphaera leucotricha = test: In vivo test on Podosphaera leucotricha (apple mildew), preventive spray; conditions: 240 h, apple young plants, evaluated 10 days after inoculation, good (at least 70%) to total protection
Experimental: In Vivo Test on Podosphaera leucotncha (Apple Mildew) [table] To produce a suitable preparation of active compound, 1 part by weight of active compound is mixed with the stated amounts of solvent and emulsifier, and the concentrate is diluted with water to the desired concentration. Young plants are sprayed with the preparation of active compound at the stated rate of application. After the spray coating has dried on, the plants are inoculated with an aqueous spore suspension of the causal agent of apple mildew (Podosphaera leucobicha). The plants are then placed in a greenhouse at approximately 23° C. and a relative atmospheric humidity of approximately 70%. The test is evaluated 10 days after the inoculation. Under these conditions, good (at least 70%) to total protection is observed at a dose of 100 ppm with the following compounds: 104, 160, 176, 177, 180, 186, 187, 188, 192, 194, 196, 198, 203, 204, 205, 207, 209, 210, 211, 212, 213, 218 and 446.

[1] = logP by HPLC on reversed-phase column (C 18), EEC Directive 79/B31 Annex V.A8, methods A and B; format: physicochemical; conditions: reversed-phase HPLC column (C 18), HPLC reversed-phase C 18, method A: 43° C., 0.1% aqueous phosphoric acid, acetonitrile, linear gradient 10% to 90% acetonitrile
Experimental: Calibration was carried out using unbranched alkan-2-ones (having 3 to 16 carbon atoms) with known logP values (determination of the logP values by the retention times using linear interpolation between two successive alkanones).

[2] = test system: Erysiphe graminis f.sp. horde; test: In vivo test on Erysiphe graminis (barley mildew), preventive spray; conditions: Blumeria graminis, 168 h, barley young plants, evaluated 7 days after inoculation, good (at least 70%) to total protection
Experimental: In Vivo Test on Erysiphe Graminis (Barley Mildew) [table] To produce a suitable preparation of active compound, 1 part by weight of active compound or active compound combination is mixed with the stated amounts of solvent and emulsifier, and the concentrate is diluted with water to the desired concentration. Young plants are sprayed with the preparation of active compound or active compound combination at the stated rate of application. After the spray coating has dried on, the plants are dusted with spores of Erysiphe graminis f.sp. horde. The plants are placed in a greenhouse at a temperature of approximately 20° C. and a relative atmospheric humidity of approximately 80% to promote the development of mildew pustules. The test is evaluated 7 days after the inoculation. Under these conditions, good (at least 70%) to total protection is observed at a dose of 1000 ppm with the following compounds: 104, 160, 177, 178, 186, 192, 194, 203, 204, 205, 207, 210, 212, 213 and 435.

Alternaria solani = test: In vivo test on Alternaria solani (tomato leaf spot), preventive spray; conditions: 168 h, tomato young plants, evaluated 7 days after inoculation, good (at least 70%) to total protection
Experimental: In Vivo Test on Alternaria Solani (Tomato Leaf Spot) [table] To produce a suitable preparation of active compound, 1 part by weight of active compound is mixed with the stated amounts of solvent and emulsifier, and the concentrate is diluted with water to the desired concentration. Young plants are sprayed with the preparation of active compound at the stated rate of application. After the spray coating has dried on, the plants are inoculated with an aqueous spore suspension of Alternaria solani. The plants remain for one day in an incubation cabinet at approximately 20° C. and a relative atmospheric humidity of 100%. Then the plants are placed in an incubation cabinet at approximately 20° C. and a relative atmospheric humidity of 96%. The test is evaluated 7 days after the inoculation. Under these conditions, good (at least 70%) to total protection is observed at a dose of 500 ppm with the following compounds 110, 143, 160, 175, 176, 178, 179, 180, 186, 187, 189, 192, 196, 198, 203, 204, 205, 209, 210, 212, 214, 215 and 652.

Pyrenophora teres = test: In vivo test on Pyrenophora teres (barley net blotch); conditions: 288 h, barley plants (Express variety), grading 12 days after contamination, good (at least 70%) or total protection
Experimental: In Vivo Test on Pyrenophore teres (Barley Net Blotch)
The active ingredients tested are prepared by homogenisation in a mixture of acetone/tween/DMSO, then diluted with water to obtain the desired active material concentration. Barley plants (Express variety) in starter cups, sown on a 50/50 peat soil-pozzolana substrate and grown at 12° C., are treated at the 1-leaf stage (10 cm tall) by spraying with the active ingredient prepared as described above. Plants, used as controls, are treated with the mixture of acetone/tween/DMSO/water not containing the active material.
After 24 hours, the plants are contaminated by spraying them with an aqueous suspension of Pyrenophora teres spores (12,000 spores per ml). The spores are collected from a 12-day-old culture. The contaminated barley plants are incubated for 24 hours at about 20° C. and at 100% relative humidity, and then for 12 days at 80% relative humidity.

Row | SMILES | chromatographic logP [1] | pest or weed control at 100 ppm (Podosphaera leucotricha) [%] | pest or weed control at 1000 ppm [2] [%] | pest or weed control at 500 ppm (Alternaria solani) [%] | pest or weed control at 500 ppm (Pyrenophora teres) [%]
1 | Cc1nn(C)c(F)c1C(=O)N(C1CC1)S(=O)(=O)c1ccccc1OC(F)(F)F [Compound 203] | 2.75 | ≥ 70 | ≥ 70 | ≥ 70 | 
2 | Cc1nn(C)c(F)c1C(=O)N(C1CC1)S(=O)(=O)c1ccc(O)c(O)c1 [Compound 178] | 3.35 |  | ≥ 70 | ≥ 70 | 
3 | Cc1nn(C)c(F)c1C(=O)N(C1CC1)S(=O)(=O)c1ccccc1F [Compound 205] | 2.25 | ≥ 70 | ≥ 70 | ≥ 70 | 
4 | Cc1nn(C)c(F)c1C(=O)N(C1CC1)S(=O)(=O)c1ccc(C(C)(C)C)cc1 [Compound 192] | 3.55 | ≥ 70 | ≥ 70 | ≥ 70 | 
5 | Cc1nn(C)c(F)c1C(=O)N(C1CC1)S(=O)(=O)c1ccccc1Br [Compound 204] | 2.37 | ≥ 70 | ≥ 70 | ≥ 70 | 

Second part, led by results:

Row | chromatographic logP [1] | SMILES | pest or weed control at 100 ppm (Podosphaera leucotricha) [%] | pest or weed control at 1000 ppm [2] [%] | pest or weed control at 500 ppm (Alternaria solani) [%] | pest or weed control at 500 ppm (Pyrenophora teres) [%]
6 | 2.94 | Cc1nn(C)c(F)c1C(=O)N(C1CC1)S(=O)(=O)c1ccc(O)cc1O [Compound 186] | ≥ 70 | ≥ 70 | ≥ 70 | 
7 | 2.77 | Cc1nn(C)c(F)c1C(=O)N(C1CC1)S(=O)(=O)c1cccc(O)c1O [Compound 210] | ≥ 70 | ≥ 70 | ≥ 70 | ≥ 70
8 | 3.35 | Cc1nn(C)c(F)c1C(=O)N(C1CC1)S(=O)(=O)c1ccc(O)c(O)c1O [Compound 212] | ≥ 70 | ≥ 70 | ≥ 70 | 
